Results published in the supplement of paper PMC10307832.

How the values were obtained:
Assay in all cases: relative viability (nuclei count vs DMSO), 5 days (fraction); higher = more cells survive
[1] = compound: COc1cc2nc(N3CCCN(C)CC3)nc(NC3CCN(Cc4ccccc4)CC3)c2cc1OC + NC(=O)Nc1cc(-c2cccc(F)c2)sc1C(=O)N[C@H]1CCCNC1 [AZD7762] (partner 0.2 µM)
How it was run: (§1)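 For relative viability, nuclei counts in treated wells were divided by those in vehicle wells. Lung cancer cell lines had been pin-tool dosed in 1536-well plates the day after seeding and cultured for 5 days, then fixed and stained in one step (final 0.05% Triton X-100, 1% formaldehyde, 1 ug/ml Hoechst) and imaged at 4×. Doses were one drug alone or a fixed anchor-drug dose plus five library-drug doses (not always all listed) in √10 steps, and values are duplicate-plate medians.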

[2] = compound: COc1cc2nc(N3CCCN(C)CC3)nc(NC3CCN(Cc4ccccc4)CC3)c2cc1OC + O=C(CCCCCCC(=O)Nc1ccccc1)NO [Vorinostat] (partner 1 µM)
How it was run: as §1

AZD6482 + Foretinib = compound: Cc1cc([C@@H](C)Nc2ccccc2C(=O)O)c2nc(N3CCOCC3)cc(=O)n2c1 [AZD6482] + COc1cc2c(Oc3ccc(NC(=O)C4(C(=O)Nc5ccc(F)cc5)CC4)cc3F)ccnc2cc1OCCCN1CCOCC1 [Foretinib] (partner 0.25 µM)
How it was run: as §1

AZD6482 + Crizotinib = compound: Cc1cc([C@@H](C)Nc2ccccc2C(=O)O)c2nc(N3CCOCC3)cc(=O)n2c1 [AZD6482] + C[C@@H](Oc1cc(-c2cnn(C3CCNCC3)c2)cnc1N)c1c(Cl)ccc(F)c1Cl [Crizotinib] (partner 1 µM)
How it was run: as §1

Row | Cell Line | relative viability ([1]; first compound 0.2 µM) | relative viability ([1]; first compound 0.6325 µM) | relative viability ([1]; first compound 2 µM) | relative viability ([1]; first compound 6.325 µM) | relative viability ([2]; first compound 0.2 µM) | relative viability ([2]; first compound 0.6325 µM) | relative viability ([2]; first compound 2 µM) | relative viability ([2]; first compound 6.325 µM) | relative viability (AZD6482 + Foretinib; first compound 0.08 µM) | relative viability (AZD6482 + Foretinib; first compound 0.253 µM) | relative viability (AZD6482 + Foretinib; first compound 0.8 µM) | relative viability (AZD6482 + Foretinib; first compound 2.53 µM) | relative viability (AZD6482 + Foretinib; first compound 8 µM) | relative viability (AZD6482 + Crizotinib; first compound 0.08 µM) | relative viability (AZD6482 + Crizotinib; first compound 0.253 µM) | relative viability (AZD6482 + Crizotinib; first compound 0.8 µM) | relative viability (AZD6482 + Crizotinib; first compound 2.53 µM) | relative viability (AZD6482 + Crizotinib; first compound 8 µM)
1 | LCLC-103H | 0.814 | 0.719 | 0.903 | 0.832 | 0.776 | 0.754 | 0.844 | 0.656 | 0.603 | 0.55 | 0.56 | 0.379 | 0.33 | 0.909 | 0.994 | 0.911 | 0.847 | 0.699
2 | LK-2 | 0.463 | 0.487 | 0.506 | 0.249 | 0.302 | 0.194 | 0.364 | 0.209 | 1.3 | 1.08 | 1.22 | 0.822 | 0.948 | 0.24 |  | 0.263 | 0.244 | 0.239
3 | LOU-NH91 | 0.727 | 0.85 | 0.759 | 0.793 | 0.942 | 1.06 | 0.845 | 0.827 | 0.826 | 0.846 | 0.993 | 0.603 | 0.677 | 0.709 | 0.725 | 0.74 | 0.564 | 0.563
4 | LU99A | 0.383 | 0.314 | 0.301 | 0.285 | 0.473 | 0.546 | 0.517 | 0.44 | 0.829 | 0.828 | 0.77 | 0.65 | 0.633 | 0.609 | 0.495 | 0.591 | 0.466 | 0.471
5 | LXF-289 | 1.04 | 1.05 | 1.12 | 1.11 | 0.722 | 0.783 | 0.796 | 0.654 | 0.912 | 0.916 | 0.977 | 0.938 | 0.831 | 0.813 | 0.837 | 0.898 | 0.794 | 0.736
6 | NCI-H23 | 0.198 | 0.322 | 0.262 | 0.174 | 0.571 | 0.597 | 0.576 | 0.471 | 0.976 | 0.856 | 0.922 | 0.639 | 0.5 | 0.444 | 0.426 | 0.481 | 0.369 | 0.417
7 | NCI-H322M | 0.48 | 0.665 | 0.444 | 0.549 | 0.838 | 0.939 | 0.855 | 0.868 | 0.823 | 0.847 | 0.897 | 0.543 | 0.738 | 0.769 | 0.826 | 0.79 | 0.627 | 0.741
8 | NCI-H358 | 0.518 | 0.681 | 0.48 | 0.498 | 0.746 | 0.663 | 0.754 | 0.462 | 0.484 | 0.706 | 0.679 | 0.407 | 0.489 | 0.514 | 0.592 | 0.566 | 0.417 | 0.383
9 | NCI-H441 | 1.09 | 1.12 | 0.973 | 1.12 | 0.77 | 0.647 | 0.927 | 0.862 | 0.852 | 0.806 | 1.21 |  | 0.87 | 0.651 | 0.689 | 0.782 | 0.443 | 0.507
10 | NCI-H460 | 0.746 | 0.604 | 0.562 | 0.636 | 0.834 | 0.72 | 0.659 | 0.603 | 1.03 | 0.977 | 1 | 0.828 | 0.719 | 0.874 | 0.644 | 0.99 | 0.6 | 0.471
11 | NCI-H596 | 1.16 | 1.03 | 1.23 | 1.06 | 0.623 | 0.717 | 0.591 | 0.57 | 0.84 | 0.853 | 0.766 | 0.635 | 0.599 | 0.792 | 0.824 | 1 | 0.943 | 0.871
12 | NCI-H647 | 0.479 | 0.602 | 0.512 | 0.419 | 0.588 | 0.669 | 0.614 | 0.24 | 0.86 | 1.3 | 0.946 | 0.721 | 0.623 | 0.902 |  | 0.748 | 0.479 | 0.648
13 | NCI-H650 | 0.95 | 0.93 | 1.02 | 0.67 | 0.573 | 0.391 | 0.475 | 0.321 | 1.02 |  | 0.978 | 0.651 | 0.704 | 0.635 |  | 0.786 | 0.442 | 0.47
14 | NCI-H727 | 0.646 | 0.449 | 0.578 | 0.668 | 1.27 | 1.14 | 1.15 | 1.07 | 0.828 | 0.862 | 1.03 | 0.786 | 0.797 | 0.684 | 0.971 | 0.864 |  | 0.824
15 | NCI-H838 | 0.974 | 0.908 | 1.01 | 0.892 | 0.772 | 0.695 | 0.938 | 0.626 | 0.855 | 0.964 | 0.873 | 0.581 | 0.469 | 0.593 | 0.824 | 0.689 | 0.48 | 0.583
16 | NCI-H1355 | 0.738 | 0.693 | 0.941 | 0.661 | 0.654 | 0.618 | 0.724 | 0.605 | 0.769 | 0.812 | 0.962 | 0.713 | 0.641 | 0.777 | 0.959 | 1.07 | 0.797 | 0.726
17 | NCI-H1437 | 1.15 | 1.17 | 1.17 | 1.17 | 0.871 | 0.778 | 0.982 | 0.734 | 1.2 | 1.33 | 1.31 | 1.13 | 0.923 | 0.921 | 0.949 | 1.02 | 0.788 | 0.872
18 | NCI-H1651 | 0.446 | 0.373 | 0.452 | 0.502 | 0.56 | 0.617 | 0.561 | 0.548 | 0.624 | 0.699 | 0.736 | 0.566 | 0.636 | 0.816 | 0.857 | 0.874 | 0.835 | 0.729
